Converted amounts (≈) assume the structure as drawn.

In one data set the test system is HCT-8 cells. The data set can be described thus: Cytotoxicity (cell viability) assay in HCT-8 cells. The class given is cell-based, human. Conditions: uninfected HCT-8 cells, 72 h.
In the next data set the test system is hCoV-OC43. Nature of the data set: Focus forming reduction assay (FFRA), hCoV-OC43 in HCT-8 cells. Conditions: for EC50 / EC90: hCoV-OC43, FFRA in HCT-8 cells, treatment before, during and after infection, 72 h p.i.; for SI (ratio of CC50 to EC50): hCoV-OC43, HCT-8 cells.

What is called CC50 is the concentration at which the toxic effect on the cells reaches its halfway point. The EC50 is the midpoint of the concentration-response curve. What is called EC90 is the concentration at which the effect reaches the 90% level. A higher EC90 goes with a need for much substance. `Oc1cc(O)c2c(c1)O[C@H](c1ccc(O)c(O)c1)[C@H](O)[C@H]2c1c(O)cc(O)c2c1O[C@H](c1ccc(O)c(O)c1)[C@@H](O)C2` [PAC B1, PAC-B1]: the CC50 in the data set on HCT-8 cells is >400 µg/mL. Besides, in the data set with hCoV-OC43, the EC50 turned out to be 167.02 ± 6.51 µg/mL (≈ 289 µM), the EC90 is >400 µg/mL and the “SI (ratio of CC50 to EC50)” value was >2.39.

For `Oc1cc(O)c2c(c1)O[C@H](c1ccc(O)c(O)c1)[C@@H](O)[C@@H]2c1c(O)cc(O)c2c1O[C@H](c1ccc(O)c(O)c1)[C@@H](O)C2` [PAC B3, PAC-B3], the CC50 in the data set with HCT-8 cells was >400 µg/mL. Also, in the data set with hCoV-OC43, the EC50 worked out at 134.92 ± 4.14 µg/mL (≈ 233 µM), the EC90 was >400 µg/mL and the “SI (ratio of CC50 to EC50)” value was >2.96.

Consider `Oc1cc(O)c2c(c1)O[C@H](c1ccc(O)c(O)c1)[C@H](O)[C@H]2c1c(O)cc(O)c2c1O[C@H](c1ccc(O)c(O)c1)[C@H](O)C2` [PAC B2, PAC-B2], for which the CC50 in the data set on HCT-8 cells is >400 µg/mL. Also, in the data set with hCoV-OC43, the 50% effective concentration (EC50) is 142.41 ± 8.93 µg/mL (≈ 246 µM), the EC90 is >400 µg/mL and the “SI (ratio of CC50 to EC50)” value was >2.81.

Take `Oc1cc(O)c2c(c1)OC1(c3ccc(O)c(O)c3)Oc3cc(O)c4c(c3C2C1O)OC(c1ccc(O)c(O)c1)C(O)C4` (centres unmarked) [PAC A1, PAC-A1]: in the data set with HCT-8 cells, the half-maximal cytotoxic concentration (CC50) was >400 µg/mL. In the data set with hCoV-OC43, the EC50 was found to be 4.10 ± 0.71 µg/mL (≈ 7.11 µM), the EC90 was found to be 139.35 ± 2.06 µg/mL (≈ 242 µM) and the “SI (ratio of CC50 to EC50)” value is recorded as >97.56.

Consider `Oc1cc(O)c2c(c1)O[C@@]1(c3ccc(O)c(O)c3)Oc3cc(O)c4c(c3[C@@H]2[C@H]1O)O[C@H](c1ccc(O)c(O)c1)[C@H](O)C4` [PAC A2, PAC-A2], for which the cytotoxic concentration (CC50) with HCT-8 cells was >400 µg/mL. Further, in the data set on hCoV-OC43, the EC50 worked out at 6.58 ± 0.40 µg/mL (≈ 11.4 µM), the EC90 came out at 100.74 ± 0.66 µg/mL (≈ 175 µM) and the “SI (ratio of CC50 to EC50)” value is on record as >60.79.
